ChEMBL document CHEMBL3046635, “Synthesis and Herbicidal Activity of New Pyrazole-4-carboxamide Derivatives” (J Pestic Sci, 2004)
The source made the active and inactive calls.

How the values were obtained:
[1] = tested on: Oryza sativa; experiment: Phytotoxicity against Oryza sativa cv. Koshihikari (rice) at 2000 g a.i/ha measured after 14 days; format: organism-based; details: in vivo, 336 h
[2] = tested on: Echinochloa oryzicola; experiment: Pre-emergence herbicidal activity against Echinochloa oryzicola at 2000 g a.i/ha measured after 14 days; format: functional, organism-based
[3] = tested on: Eleocharis acicularis; experiment: Post-emergence herbicidal activity against Eleocharis acicularis assessed as bleaching of stem/leaf parts; format: functional, organism-based; also: test concentration or dose not given here
[4] = tested on: Eleocharis acicularis; experiment: Pre-emergence herbicidal activity against Eleocharis acicularis assessed as bleaching of stem/leaf parts; format: functional, organism-based
[5] = tested on: Ammannia multiflora; experiment: Pre-emergence herbicidal activity against Ammannia multiflora assessed as bleaching of stem/leaf parts; format: functional, organism-based
[6] = tested on: Rotala indica; experiment: Pre-emergence herbicidal activity against Rotala indica assessed as bleaching of stem/leaf parts; format: functional, organism-based
[7] = tested on: Elatine triandra; experiment: Pre-emergence herbicidal activity against Elatine triandra assessed as bleaching of stem/leaf parts; format: functional, organism-based
[8] = tested on: Lindernia procumbens; experiment: Pre-emergence herbicidal activity against Lindernia procumbens assessed as bleaching of stem/leaf parts; format: functional, organism-based
[9] = tested on: Schoenoplectiella juncoides; experiment: Pre-emergence herbicidal activity against Schoenoplectiella juncoides assessed as bleaching of stem/leaf parts; format: functional, organism-based
[10] = tested on: Pontederia vaginalis; experiment: Pre-emergence herbicidal activity against Monochoria vaginalis assessed as bleaching of stem/leaf parts; format: functional, organism-based
[11] = tested on: Cyperus difformis; experiment: Pre-emergence herbicidal activity against Cyperus difformis assessed as bleaching of stem/leaf parts; format: functional, organism-based
[12] = tested on: Echinochloa oryzicola; experiment: Pre-emergence herbicidal activity against Echinochloa oryzicola assessed as bleaching of stem/leaf parts; format: functional, organism-based
[13] = tested on: Ammannia multiflora; experiment: Post-emergence herbicidal activity against Ammannia multiflora assessed as bleaching of stem/leaf parts; format: functional, organism-based; also: test concentration or dose not given here
[14] = tested on: Elatine triandra; experiment: Post-emergence herbicidal activity against Elatine triandra assessed as bleaching of stem/leaf parts; format: functional, organism-based; also: test concentration or dose not given here
[15] = tested on: Rotala indica; experiment: Post-emergence herbicidal activity against Rotala indica assessed as bleaching of stem/leaf parts; format: functional, organism-based; also: test concentration or dose not given here
[16] = tested on: Schoenoplectiella juncoides; experiment: Post-emergence herbicidal activity against Schoenoplectiella juncoides assessed as bleaching of stem/leaf parts; format: functional, organism-based; also: test concentration or dose not given here
[17] = tested on: Lindernia procumbens; experiment: Post-emergence herbicidal activity against Lindernia procumbens assessed as bleaching of stem/leaf parts; format: functional, organism-based; also: test concentration or dose not given here
[18] = tested on: Pontederia vaginalis; experiment: Post-emergence herbicidal activity against Monochoria vaginalis assessed as bleaching of stem/leaf parts; format: functional, organism-based; also: test concentration or dose not given here
[19] = tested on: Cyperus difformis; experiment: Post-emergence herbicidal activity against Cyperus difformis assessed as bleaching of stem/leaf parts; format: functional, organism-based; also: test concentration or dose not given here
[20] = tested on: Echinochloa oryzicola; experiment: Post-emergence herbicidal activity against Echinochloa oryzicola assessed as bleaching of stem/leaf parts; format: functional, organism-based; also: test concentration or dose not given here
[21] = tested on: Eleocharis acicularis; experiment: Pre-emergence herbicidal activity against Eleocharis acicularis at 2000 g a.i/ha measured after 14 days; format: functional, organism-based
[22] = tested on: Schoenoplectiella juncoides; experiment: Pre-emergence herbicidal activity against Schoenoplectiella juncoides at 2000 g a.i/ha measured after 14 days; format: functional, organism-based
[23] = tested on: Pontederia vaginalis; experiment: Pre-emergence herbicidal activity against Monochoria vaginalis at 2000 g a.i/ha measured after 14 days; format: functional, organism-based
[24] = tested on: Ammannia multiflora; experiment: Pre-emergence herbicidal activity against Ammannia multiflora at 2000 g a.i/ha measured after 14 days; format: functional, organism-based
[25] = tested on: Rotala indica; experiment: Pre-emergence herbicidal activity against Rotala indica at 2000 g a.i/ha measured after 14 days; format: functional, organism-based
[26] = tested on: Elatine triandra; experiment: Pre-emergence herbicidal activity against Elatine triandra at 2000 g a.i/ha measured after 14 days; format: functional, organism-based
[27] = tested on: Lindernia procumbens; experiment: Pre-emergence herbicidal activity against Lindernia procumbens at 2000 g a.i/ha measured after 14 days; format: functional, organism-based
[28] = tested on: Cyperus difformis; experiment: Pre-emergence herbicidal activity against Cyperus difformis at 2000 g a.i/ha measured after 14 days; format: functional, organism-based

CCCN(CC)C(=O)c1cn(C)nc1OCc1cc(Br)cc(Br)c1 was tested. Which Activity [1] did it give?
Its Activity is “Non-toxic”.

What about the Activity [2] of the same molecule?
Its Activity is “inactive”.

What about the Activity [3] of the same molecule?
The Activity was “Active”.

And the Activity [4]?
The Activity was “Active”.

What about the Activity [5] of the same molecule?
The Activity was “Active”.

And the Activity [6]?
The Activity was “Active”.

And the Activity [7]?
The Activity was “Active”.

And the Activity [8]?
Its Activity is “Active”.

And the Activity [9]?
The Activity was “Active”.

And the Activity [10]?
The Activity was “Active”.

What about the Activity [11] of the same molecule?
Its Activity is “Active”.

And the Activity [12]?
The Activity was “Active”.

What about the Activity [13] of the same molecule?
Its Activity is “Active”.

What about the Activity [14] of the same molecule?
The Activity was “Active”.

And the Activity [15]?
The Activity was “Active”.

What about the Activity [16] of the same molecule?
Its Activity is “Active”.

What about the Activity [17] of the same molecule?
Its Activity is “Active”.

And the Activity [18]?
The Activity was “Active”.

And the Activity [19]?
The Activity was “Active”.

And the Activity [20]?
The Activity was “Active”.

And the Activity [21]?
Its Activity is “inactive”.

And the Activity [22]?
Its Activity is “inactive”.

And the Activity [23]?
The Activity was “inactive”.

And the Activity [24]?
Its Activity is “inactive”.

What about the Activity [25] of the same molecule?
Its Activity is “inactive”.

What about the Activity [26] of the same molecule?
The Activity was “inactive”.

What about the Activity [27] of the same molecule?
Its Activity is “inactive”.

What about the Activity [28] of the same molecule?
Its Activity is “inactive”.
